SMILES strings stand for the structures.

Drawing on US20250221966A1, “RXFP1 AGONISTS” (BRISTOL-MYERS SQUIBB COMPANY, priority 2021, published 2025), this text covers EC50 for 36 compounds.

In the test the target is T1, human RXFP1 (Homo sapiens, UniProt Q9HBX9).
T1 construct: expressed in transfected cells
T1 sequence (Q9HBX9 1-757): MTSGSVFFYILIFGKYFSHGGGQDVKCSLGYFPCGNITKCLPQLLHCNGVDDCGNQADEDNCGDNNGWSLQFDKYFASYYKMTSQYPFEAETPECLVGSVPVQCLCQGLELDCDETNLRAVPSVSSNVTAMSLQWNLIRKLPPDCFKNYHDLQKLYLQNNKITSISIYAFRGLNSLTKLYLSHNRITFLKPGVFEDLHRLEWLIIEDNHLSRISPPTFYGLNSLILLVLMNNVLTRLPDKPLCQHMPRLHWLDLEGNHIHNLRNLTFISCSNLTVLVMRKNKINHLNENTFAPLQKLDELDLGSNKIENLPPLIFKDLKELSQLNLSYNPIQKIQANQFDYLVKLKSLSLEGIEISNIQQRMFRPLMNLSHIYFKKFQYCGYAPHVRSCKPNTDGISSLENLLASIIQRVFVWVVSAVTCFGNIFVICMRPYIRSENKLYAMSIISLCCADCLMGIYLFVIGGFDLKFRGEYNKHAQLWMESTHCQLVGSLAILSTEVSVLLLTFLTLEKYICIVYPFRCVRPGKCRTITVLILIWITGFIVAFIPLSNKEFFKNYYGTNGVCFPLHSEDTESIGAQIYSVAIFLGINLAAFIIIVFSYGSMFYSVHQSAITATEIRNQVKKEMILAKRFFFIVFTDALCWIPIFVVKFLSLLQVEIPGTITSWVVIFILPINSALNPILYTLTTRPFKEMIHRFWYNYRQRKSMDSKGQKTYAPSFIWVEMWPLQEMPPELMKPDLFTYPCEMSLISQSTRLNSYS
Put plainly: RXFP1 cAMP assay (hRXFP1 HEK293 cAMP assay, HTRF). The format is cell-based. The note with it: HEK293 cells stably expressing human RXFP1, 30 min at room temperature, read-out: cAMP hRXFP1 HEK293 Assay EC50. Put shortly:
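Potency and activity come from a four-parameter logistic fit of cAMP against compound concentration, tested from 0.010 nM up to 50 μM. The assay uses HEK293 cells stably expressing human RXFP1, incubated 30 min at ambient temperature with phosphodiesterase inhibitor IBMX present.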
On the technique in general: Changes in cAMP serve as a functional read-out for many G protein-coupled receptors.
In the case of `CNC(=O)c1ccc(-c2ccc(OC)c(C(=O)N[C@@H]3C4CCC(/C4=C/c4ccccc4)[C@@H]3C(=O)Nc3ccc(F)c(C(F)(F)F)c3)c2)c(F)c1` (stereo partly drawn) [compound 196], the EC50 was determined as 45 nM.

Regarding `COc1ccc(-c2cc(C(O)C(=O)O)ccc2F)cc1C(=O)NC1C2CCC(/C2=C/C2CCN(Cc3ccc(Cl)cc3)C2)C1C(=O)Nc1ccc(F)c(C(F)(F)F)c1` (stereo not drawn) [compound 357], the EC50 is 211 nM.

Turning to `COc1ccc(-c2cc(-c3nnn[nH]3)ccc2F)cc1C(=O)N[C@@H]1C2CCC(/C2=C/c2ccccc2)[C@@H]1C(=O)Nc1ccc(F)c(C(F)(F)F)c1` (stereo partly drawn) [compound 152], the EC50 came to 8 nM.

For `COCCOc1ccc(C2=NOC3COCC23)cc1C(=O)N[C@H]1[C@@H](C(=O)Nc2ccc(F)c(C(F)(F)F)c2)[C@H]2CC[C@@H]1/C2=C\C1CC1` (single isomer, unassigned) [compound 644], the EC50 came to 238 nM.

Turning to `CCc1cccc(/C=C2\C3CCC2[C@H](C(=O)Nc2ccc(F)c(C(F)(F)F)c2)[C@@H]3NC(=O)c2cc(F)c(F)cc2OC)c1` (stereo partly drawn) [compound 29], the EC50 came to 110 nM.

For `O=C(N[C@H]1[C@@H](C(=O)Nc2ccc(F)c(C(F)(F)F)c2)[C@H]2CC[C@@H]1/C2=C\C1CC1)c1cc(C2=NOC3COCC23)ccc1F` (single isomer, unassigned) [compound 514], the EC50 came out at 17.2 nM.

Consider `COc1ccc(-c2noc(CCO)c2CCO)cc1C(=O)N[C@H]1[C@@H](C(=O)Nc2ccc(F)c(C(F)(F)F)c2)[C@H]2CC[C@@H]1/C2=C\C1CC1` [compound 531], for which the EC50 turned out to be 22.7 nM.

Consider `COc1ccc(-c2cc(C3=NOC(CO)C3)ccc2F)cc1C(=O)N[C@H]1[C@@H](C(=O)Nc2ccc(F)c(C(F)(F)F)c2)[C@H]2CC[C@@H]1/C2=C\C1CC1` (stereo partly drawn) [compound 905], for which the EC50 was found to be 7 nM.

On to `COCc1ccccc1CNC(=O)[C@@H]1[C@H](NC(=O)c2cc(C3=NOC4COCC34)ccc2OC)[C@@H]2CC[C@H]1/C2=C/C1CC1` (stereo partly drawn) [compound 641], for which the EC50 turned out to be 217 nM.

In the case of `COC(=O)C1CC2ON=C(c3ccc(OC)c(C(=O)N[C@H]4[C@@H](C(=O)Nc5ccc(F)c(C(F)(F)F)c5)[C@H]5CC[C@@H]4/C5=C\C4CC4)c3)C2C1` (stereo partly drawn) [compound 512], the EC50 came out at 15.7 nM.

As for `COc1ccc(C2=NOC3(C2)CC(CO)C3)cc1C(=O)N[C@H]1[C@@H](C(=O)Nc2ccc(F)c(C(F)(F)F)c2)[C@H]2CC[C@@H]1/C2=C\C1CC1` (stereo partly drawn) [Example 511], the EC50 was found to be 15.3 nM.

As for `COc1ccc(-c2cccnc2)cc1C(=O)N[C@H]1[C@@H](C(=O)Nc2ccc(F)c(C(F)(F)F)c2)[C@H]2CC[C@@H]1/C2=C\C(F)(F)F` [Example 310, (1R,2S,3R,4R,Z)—N-(4-fluoro-3-(trifluoromethyl)phenyl)-3-(2-methoxy-5-(pyridin-3-yl)benzamido)-7-(2,2,2-trifluoroethylidene)bicyclo[2.2.1]heptane-2-carboxamide], the EC50 is 162 nM.

Turning to `COc1ccc(-c2ccnc3c2ncn3CC(=O)O)cc1C(=O)N[C@@H]1C2CCC(/C2=C/C(F)(F)F)[C@@H]1C(=O)Nc1ccc(F)c(C(F)(F)F)c1` (stereo partly drawn) [compound 314], the half-maximal effective concentration (EC50) is 5 nM.

Consider `COc1cc(F)c(F)cc1C(=O)N[C@@H]1C2CCC(/C2=C/c2ccsc2)[C@@H]1C(=O)Nc1ccc(F)c(C(F)(F)F)c1` (stereo partly drawn) [compound 36], for which the EC50 amounted to 19 nM.

Consider `COc1ccc(C2=NOC(C(C)(O)C(F)(F)F)C2)cc1C(=O)N[C@H]1[C@@H](C(=O)Nc2ccc(F)c(C(F)(F)F)c2)[C@H]2CC[C@@H]1/C2=C\C1CC1` (single isomer, unassigned) [compound 517], for which the EC50 came out at 18 nM.

As for `COc1ncc(-c2ccc(OC)c(C(=O)N[C@H]3[C@@H](C(=O)Nc4ccc(F)c(C(F)(F)F)c4)[C@H]4CC[C@@H]3C4=C(C)C)c2)cn1` [compound 88], the EC50 turned out to be 190 nM.

As to `COc1ccc(-c2cc(C(=O)O)ccc2F)cc1C(=O)N[C@@H]1C2CCC(/C2=C/C2CC2)[C@@H]1C(=O)N[C@H](C)c1ccccc1` (stereo partly drawn) [compound 261], the EC50 was 1880 nM.

For `COc1cc(F)c(F)cc1C(=O)N[C@@H]1C2CCC(/C2=C/Cc2ccccc2)[C@@H]1C(=O)Nc1ccc(F)c(C(F)(F)F)c1` (stereo partly drawn) [compound 57], the EC50 was determined as 550 nM.

On to `CCCOc1c(F)cc(C2=NOC3CC(CO)CC23)cc1C(=O)N[C@H]1[C@@H](C(=O)Nc2ccc(F)c(C(F)(F)F)c2)[C@H]2CC[C@@H]1/C2=C\C1CC1` (stereo partly drawn) [compound 782], for which the EC50 turned out to be 3.2 nM.

Turning to `COc1c(F)cc(C2=NOC(C)(CO)C2)cc1C(=O)N[C@H]1[C@@H](C(=O)N[C@H](C)C2(C)CC2)[C@H]2CC[C@@H]1/C2=C\C1CC1` (stereo partly drawn) [compound 744], the EC50 stood at 2.5 nM.

On to `COc1ccc(-c2ccc(C(CC(=O)O)C(F)(F)F)cc2F)cc1C(=O)N[C@H]1[C@@H](C(=O)Nc2ccc(F)c(C(F)(F)F)c2)[C@H]2CC[C@@H]1/C2=C\C1CCCC1` (stereo partly drawn) [compound 891], for which the EC50 was 3.7 nM.

Consider `COC(=O)N1CC2ON=C(c3ccc(OC)c(C(=O)N[C@H]4[C@@H](C(=O)Nc5ccc(F)c(C(F)(F)F)c5)[C@H]5CC[C@@H]4/C5=C\C4CC4)c3)C2C1` (stereo partly drawn) [Example 438, methyl 3-(3-(((1R,2R,3S,4R,Z)-7-(cyclopropylmethylene)-3-((4-fluoro-3-(trifluoromethyl)phenyl)carbamoyl)bicyclo[2.2.1]heptan-2-yl)carbamoyl)-4-methoxyphenyl)-3a,4,6,6a-tetrahydro-5H-pyrrolo[3,4-d]isoxazole-5-carboxylate], for which the EC50 came out at 24 nM.

`COc1ccc(C2=NOC3CC(CO)CC23)cc1C(=O)NC1C2CCC(C2=CC2CC2)C1C(=O)NCC(C)(C)C` (stereo not drawn) [Example 453]: the EC50 was determined as 1.9 nM.

Turning to `COc1ccc(-c2cc(C(=O)O)ccc2F)cc1C(=O)N[C@@H]1C2CCC(/C2=C/C2CC2)[C@@H]1C(=O)NCc1ccccc1` (stereo partly drawn) [compound 260], the EC50 stood at 2970 nM.

Regarding `COc1ccc(C2=NOC3COCC23)cc1C(=O)N[C@H]1[C@@H](C(=O)NC2CCCC2)[C@H]2CC[C@@H]1/C2=C\C1CC1` (stereo partly drawn) [Example 565], the EC50 worked out at 50.7 nM.

`COCCCOc1c(F)cc(C2=NOC3COCC23)cc1C(=O)N[C@H]1[C@@H](C(=O)Nc2ccc(F)c(C(F)(F)F)c2)[C@H]2CC[C@@H]1/C2=C\C1CC1` (stereo partly drawn) [compound 778]: the EC50 turned out to be 1.1 nM.

Consider `COc1ccc(-c2cc(C(NC(=O)C(F)(F)F)C(=O)O)ccc2F)cc1C(=O)N[C@@H]1C2CCC(/C2=C/C(F)(F)F)[C@@H]1C(=O)Nc1ccc(F)c(C(F)(F)F)c1` (stereo partly drawn) [compound 241], for which the EC50 turned out to be 3 nM.

As for `COc1ccc(C2=NOC3CC(CO)CC23)cc1C(=O)N[C@H]1[C@@H](C(=O)Nc2ccc(F)c(C(F)(F)F)c2)[C@H]2CC[C@@H]1/C2=C\C1CC1` (stereo partly drawn) [Example 429, (1R,2S,3R,4R,Z)-7-(cyclopropylmethylene)-N-(4-fluoro-3-(trifluoromethyl)phenyl)-3-(5-(5-(hydroxymethyl)-3a,5,6,6a-tetrahydro-4H-cyclopenta[d]isoxazol-3-yl)-2-methoxybenzamido)bicyclo[2.2.1]heptane-2-carboxamide], the EC50 came to 2 nM.

Consider `COCC1CC(c2ccc(OC)c(C(=O)N[C@H]3[C@@H](C(=O)Nc4ccc(F)c(C(F)(F)F)c4)[C@H]4CC[C@@H]3C4=CC3CC3)c2)=NO1` (stereo partly drawn) [compound 551], for which the EC50 worked out at 36.6 nM.

Take `COc1c(F)cc(C2=NOC3CC(CO)CC23)cc1C(=O)N[C@H]1[C@@H](C(=O)Nc2ccc(F)c(C(F)(F)F)c2)[C@H]2CC[C@@H]1/C2=C\C1CC(F)(F)C1` (stereo partly drawn) [compound 918]: the EC50 is 5.5 nM.

Take `COc1ccc(C2=NOC3COCC23)cc1C(=O)N[C@H]1[C@@H](C(=O)NCc2ncccc2C(F)(F)F)[C@H]2CC[C@@H]1/C2=C\C1CC1` (stereo partly drawn) [compound 690]: the 50% effective concentration (EC50) was found to be 712 nM.

For the compound `COc1ccc(C2CCCN2C(=O)OC(C)(C)C)cc1C(=O)N[C@@H]1C2CCC(/C2=C/C2CC2)[C@@H]1C(=O)Nc1ccc(F)c(C(F)(F)F)c1` (single isomer, unassigned) [compound 715], the EC50 is 1960 nM.

As to `COc1c(F)cc(C2=NOC3CC(O)(C(F)(F)F)CC23)cc1C(=O)N[C@H]1[C@@H](C(=O)N[C@H](C)C2(C)CC2)[C@H]2CC[C@@H]1/C2=C\c1cnc(C(F)(F)F)s1` (stereo partly drawn) [compound 917], the EC50 was 1.3 nM.

As for `COc1ccc(C2=NOC3CC(C)(CO)CC23)cc1C(=O)N[C@H]1[C@@H](C(=O)Nc2ccc(F)c(C(F)(F)F)c2)[C@H]2CC[C@@H]1/C2=C\C1CCCC1` (stereo partly drawn) [compound 748], the EC50 came to 3.3 nM.

For `COc1c(F)cc(C2=NOC3CC(C)(CO)CC23)cc1C(=O)N[C@H]1[C@@H](C(=O)N[C@H](C)C2(C)CC2)[C@H]2CC[C@@H]1/C2=C\C1CC1` (stereo partly drawn) [compound 961], the EC50 turned out to be 1 nM.

Turning to `COc1ccc(C2=NOC(CNC(=O)OC(C)(C)C)C2)cc1C(=O)N[C@@H]1C2CCC(/C2=C/C(F)(F)F)[C@@H]1C(=O)Nc1ccc(F)c(C(F)(F)F)c1` (stereo partly drawn) [compound 403], the EC50 was determined as 1390 nM.

As a reminder, the EC50 is the concentration that produces a half-maximal response.
